Patent US12077503B2, “Substituted cyclic amides and their use as herbicides” (FMC CORPORATION, priority 2015, dated 2024)

Key:
Type in all cases: in vivo
[1] = system: ducksalad (Heteranthera limosa); assay: Test B flooded paddy test; conditions: Heteranthera limosa, 250 g ai/ha, Flood; 0 to 100 scale where 0 is no effect and 100 is complete control; read-out: Ducksalad plant response rating
In short: (§1)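 Greenhouse paddy pots with 2-leaf stage plants received compound by direct addition to floodwater 3 cm deep, kept at that level. Scored visually at 13–15 d versus controls (0 no effect; 100 complete control).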

[2] = system: sedge, umbrella (small-flower umbrella sedge, Cyperus difformis); assay: Test B flooded paddy test; conditions: Cyperus difformis, 250 g ai/ha, Flood; 0 to 100 scale where 0 is no effect and 100 is complete control; read-out: Sedge, Umbrella plant response rating
In short: as §1

[3] = system: barnyardgrass (Echinochloa crus-galli); assay: Test B flooded paddy test; conditions: Echinochloa crus-galli, 250 g ai/ha, Flood; 0 to 100 scale where 0 is no effect and 100 is complete control; read-out: Barnyardgrass plant response rating
In short: as §1

rice (Oryra sativa) = assay: Test B flooded paddy test; conditions: Oryza sativa, 250 g ai/ha, Flood; 0 to 100 scale where 0 is no effect and 100 is complete control; read-out: Rice plant response rating
In short: as §1

[4] = system: Galium (catchweed bedstraw, Galium aparine); assay: Test A postemergence; conditions: Galium, post-emergence, 240 h
In short: (§2)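 Seeded soil received test chemicals as a preemergence directed spray, and seedlings at one to two leaves, 2–10 cm tall, received them postemergence, in a non-phytotoxic, surfactant-containing solvent mixture. Pots were held in a greenhouse for approximately 10 d, then rated for injury from 0, no effect, to 100, complete control.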

Kochia (Kochia scoparia) [5] = assay: Test A postemergence; conditions: Bassia scoparia, post-emergence, 240 h
In short: as §2

[6] = system: giant foxtail (Setaria faberii); assay: Test A postemergence; conditions: Setaria faberi, post-emergence, 240 h
In short: as §2

[7] = system: wheat (Triticum aestivum); assay: Test A postemergence; conditions: Triticum aestivum, post-emergence, 240 h
In short: as §2

corn (Zea mays) = assay: Test A postemergence; conditions: Zea mays, post-emergence, 240 h
In short: as §2

[8] = system: ryegrass, Italian (Italian ryegrass, Lolium multiflorum); assay: Test A postemergence; conditions: Lolium multiflorum, post-emergence, 240 h
In short: as §2

[9] = system: barnyardgrass (Echinochloa crus-galli); assay: Test A postemergence; conditions: Echinochloa crus-galli, post-emergence, 240 h
In short: as §2

[10] = system: pigweed (Amaranthus retroflexus); assay: Test A postemergence; conditions: Amaranthus retroflexus, post-emergence, 240 h
In short: as §2

[11] = system: ragweed (common ragweed, Ambrosia elatior); assay: Test A postemergence; conditions: Ambrosia artemisiifolia, post-emergence, 240 h
In short: as §2

[12] = system: blackgrass (Alopecurus myosuroides); assay: Test A postemergence; conditions: Alopecurus myosuroides, post-emergence, 240 h
In short: as §2

Kochia (Kochia scoparia) [13] = assay: Test A preemergence; conditions: Bassia scoparia, pre-emergence, 240 h, 0 to 100 scale where 0 is no effect and 100 is complete control, read-out: Kochia plant response rating
In short: as §2

[14] = system: giant foxtail (Setaria faberii); assay: Test A preemergence; conditions: Setaria faberi, pre-emergence, 240 h, 0 to 100 scale where 0 is no effect and 100 is complete control, read-out: Foxtail, Giant plant response rating
In short: as §2

[15] = system: ryegrass, Italian (Italian ryegrass, Lolium multiflorum); assay: Test A preemergence; conditions: Lolium multiflorum, pre-emergence, 240 h, 0 to 100 scale where 0 is no effect and 100 is complete control, read-out: Ryegrass, Italian plant response rating
In short: as §2

[16] = system: barnyardgrass (Echinochloa crus-galli); assay: Test A preemergence; conditions: Echinochloa crus-galli, pre-emergence, 240 h, 0 to 100 scale where 0 is no effect and 100 is complete control, read-out: Barnyardgrass plant response rating
In short: as §2

[17] = system: pigweed (Amaranthus retroflexus); assay: Test A preemergence; conditions: Amaranthus retroflexus, pre-emergence, 240 h, 0 to 100 scale where 0 is no effect and 100 is complete control, read-out: Pigweed plant response rating
[18] = system: ragweed (common ragweed, Ambrosia elatior); assay: Test A preemergence; conditions: Ambrosia artemisiifolia, pre-emergence, 240 h, 0 to 100 scale where 0 is no effect and 100 is complete control, read-out: Ragweed plant response rating
In short: as §2

[19] = 125 g ai/ha, preemergence, approx. 10 d

## CN1C[C@H](c2cc(C(F)F)cs2)[C@@H](C(=O)Nc2ccc(F)c(F)c2F)C1=O [Compound 1083]
[1]
  pest or weed control at 250 g/ha: 95%
[2]
  pest or weed control at 250 g/ha: 0%
[3]
  pest or weed control at 250 g/ha: 90%
Rice (Oryra sativa)
  pest or weed control at 250 g/ha: 40%
[4]; 125 g ai/ha, postemergence, visual injury on 0 to 100 scale (0 no effect, 100 complete control), approx. 10 d, read-out: Galium plant response rating
  pest or weed control at 125 g/ha: 70%
[4]; Postemergence, 31 g ai/ha, visual injury after approx. 10 d, 0 to 100 scale, 0 no effect, 100 complete control, read-out: Plant response rating, Galium
  pest or weed control at 31 g/ha: 60%
Kochia (Kochia scoparia) [5]; 125 g ai/ha, postemergence, visual injury on 0 to 100 scale (0 no effect, 100 complete control), approx. 10 d, read-out: Kochia plant response rating
  pest or weed control at 125 g/ha: 40%
Kochia (Kochia scoparia) [5]; Postemergence, 31 g ai/ha, visual injury after approx. 10 d, 0 to 100 scale, 0 no effect, 100 complete control, read-out: Plant response rating, Kochia
  pest or weed control at 31 g/ha: 20%
[6]; 125 g ai/ha, postemergence, visual injury on 0 to 100 scale (0 no effect, 100 complete control), approx. 10 d, read-out: Foxtail, Giant plant response rating
  pest or weed control at 125 g/ha: 90%
[6]; Postemergence, 31 g ai/ha, visual injury after approx. 10 d, 0 to 100 scale, 0 no effect, 100 complete control, read-out: Plant response rating, Foxtail, Giant
  pest or weed control at 31 g/ha: 80%
[7]; 125 g ai/ha, postemergence, visual injury on 0 to 100 scale (0 no effect, 100 complete control), approx. 10 d, read-out: Wheat plant response rating
  plant injury at 125 g/ha: 40%
[7]; Postemergence, 31 g ai/ha, visual injury after approx. 10 d, 0 to 100 scale, 0 no effect, 100 complete control, read-out: Plant response rating, Wheat
  plant injury at 31 g/ha: 40%
Corn (Zea mays); 125 g ai/ha, postemergence, visual injury on 0 to 100 scale (0 no effect, 100 complete control), approx. 10 d, read-out: Corn plant response rating
  plant injury at 125 g/ha: 40%
Corn (Zea mays); Postemergence, 31 g ai/ha, visual injury after approx. 10 d, 0 to 100 scale, 0 no effect, 100 complete control
  Corn plant response rating (crop injury, 0 = no effect, 100 = complete kill) at 31 g/ha: 20%
[8]; 125 g ai/ha, postemergence, visual injury on 0 to 100 scale (0 no effect, 100 complete control), approx. 10 d, read-out: Ryegrass, Italian plant response rating
  pest or weed control at 125 g/ha: 20%
[8]; Postemergence, 31 g ai/ha, visual injury after approx. 10 d, 0 to 100 scale, 0 no effect, 100 complete control, read-out: Plant response rating, Ryegrass, Italian
  pest or weed control at 31 g/ha: 0%
[9]; 125 g ai/ha, postemergence, visual injury on 0 to 100 scale (0 no effect, 100 complete control), approx. 10 d, read-out: Barnyardgrass plant response rating
  pest or weed control at 125 g/ha: 90%
[9]; Postemergence, 31 g ai/ha, visual injury after approx. 10 d, 0 to 100 scale, 0 no effect, 100 complete control, read-out: Plant response rating, Barnyardgrass
  pest or weed control at 31 g/ha: 90%
[10]; 125 g ai/ha, postemergence, visual injury on 0 to 100 scale (0 no effect, 100 complete control), approx. 10 d, read-out: Pigweed plant response rating
  pest or weed control at 125 g/ha: 20%
[10]; Postemergence, 31 g ai/ha, visual injury after approx. 10 d, 0 to 100 scale, 0 no effect, 100 complete control, read-out: Plant response rating, Pigweed
  pest or weed control at 31 g/ha: 0%
[11]; 125 g ai/ha, postemergence, visual injury on 0 to 100 scale (0 no effect, 100 complete control), approx. 10 d, read-out: Ragweed plant response rating
  pest or weed control at 125 g/ha: 30%
[11]; Postemergence, 31 g ai/ha, visual injury after approx. 10 d, 0 to 100 scale, 0 no effect, 100 complete control, read-out: Plant response rating, Ragweed
  pest or weed control at 31 g/ha: 0%
[12]; 125 g ai/ha, postemergence, visual injury on 0 to 100 scale (0 no effect, 100 complete control), approx. 10 d, read-out: Blackgrass plant response rating
  pest or weed control at 125 g/ha: 60%
[12]; Postemergence, 31 g ai/ha, visual injury after approx. 10 d, 0 to 100 scale, 0 no effect, 100 complete control, read-out: Plant response rating, Blackgrass
  pest or weed control at 31 g/ha: 50%
Kochia (Kochia scoparia) [13]; 31 g ai/ha, Preemergence
  pest or weed control at 31 g/ha: 20%
Kochia (Kochia scoparia) [13]; [19]
  pest or weed control at 125 g/ha: 90%
[14]; 31 g ai/ha, Preemergence
  pest or weed control at 31 g/ha: 100%
[14]; [19]
  pest or weed control at 125 g/ha: 100%
[15]; 31 g ai/ha, Preemergence
  pest or weed control at 31 g/ha: 20%
[15]; [19]
  pest or weed control at 125 g/ha: 60%
[16]; 31 g ai/ha, Preemergence
  pest or weed control at 31 g/ha: 90%
[16]; [19]
  pest or weed control at 125 g/ha: 100%
[17]; 31 g ai/ha, Preemergence
  pest or weed control at 31 g/ha: 0%
[17]; [19]
  pest or weed control at 125 g/ha: 20%
[18]; 31 g ai/ha, Preemergence
  pest or weed control at 31 g/ha: 0%
[18]; [19]
  pest or weed control at 125 g/ha: 80%
